Measured values published in ChEMBL document CHEMBL3751693, “Synthesis, antimicrobial evaluation and molecular modeling of 5-hydroxyisoquinolinium salt series; the effect of the hydroxyl moiety” (Bioorg Med Chem, 2016).

What was measured:
[1] = tested on: Staphylococcus aureus; assay: Antimicrobial activity against clinical isolate Staphylococcus aureus CCM 451608 after 24 hrs; assay type: functional; details: CCM 451608, 24 h
[2] = tested on: Staphylococcus aureus; assay: Antimicrobial activity against clinical isolate Staphylococcus aureus CCM 451608 after 48 hrs; assay type: functional; details: CCM 451608, 48 h
[3] = tested on: Staphylococcus aureus; assay: Antimicrobial activity against clinical isolate methicillin-resistant Staphylococcus aureus H 599608 after 24 hrs; assay type: functional; details: H 599608, 24 h
[4] = tested on: Staphylococcus aureus; assay: Antimicrobial activity against clinical isolate methicillin-resistant Staphylococcus aureus H 599608 after 48 hrs; assay type: functional; details: H 599608, 48 h
[5] = tested on: Staphylococcus epidermidis; assay: Antimicrobial activity against clinical isolate Staphylococcus epidermidis H 696608 after 24 hrs; assay type: functional; details: H 696608, 24 h
[6] = tested on: Staphylococcus epidermidis; assay: Antimicrobial activity against clinical isolate Staphylococcus epidermidis H 696608 after 48 hrs; assay type: functional; details: H 696608, 48 h
[7] = tested on: Enterococcus sp.; assay: Antimicrobial activity against clinical isolate Enterococcus sp. J 1436508 after 24 hrs; assay type: functional; details: J 1436508, 24 h
[8] = tested on: Enterococcus sp.; assay: Antimicrobial activity against clinical isolate Enterococcus sp. J 1436508 after 48 hrs; assay type: functional; details: J 1436508, 48 h
[9] = tested on: Escherichia coli; assay: Antimicrobial activity against clinical isolate Escherichia coli CCM 4517 after 24 hrs; assay type: functional; details: CCM 4517, 24 h
[10] = tested on: Escherichia coli; assay: Antimicrobial activity against clinical isolate Escherichia coli CCM 4517 after 48 hrs; assay type: functional; details: CCM 4517, 48 h
[11] = tested on: Klebsiella pneumoniae; assay: Antimicrobial activity against clinical isolate Klebsiella pneumoniae D 1175008 after 24 hrs; assay type: functional; details: D 1175008, 24 h
[12] = tested on: Klebsiella pneumoniae; assay: Antimicrobial activity against clinical isolate Klebsiella pneumoniae D 1175008 after 48 hrs; assay type: functional; details: D 1175008, 48 h
[13] = tested on: Klebsiella pneumoniae; assay: Antimicrobial activity against clinical isolate ESBL-Klebsiella pneumoniae J 1436808 after 24 hrs; assay type: functional; details: J 1436808, 24 h
[14] = tested on: Klebsiella pneumoniae; assay: Antimicrobial activity against clinical isolate ESBL-Klebsiella pneumoniae J 1436808 after 48 hrs; assay type: functional; details: J 1436808, 48 h
[15] = tested on: Pseudomonas aeruginosa; assay: Antimicrobial activity against clinical isolate Pseudomonas aeruginosa CCM 1961 after 72 hrs; assay type: functional; details: CCM 1961, 72 h
[16] = tested on: Pseudomonas aeruginosa; assay: Antimicrobial activity against clinical isolate Pseudomonas aeruginosa CCM 1961 after 120 hrs; assay type: functional; details: CCM 1961, 120 h
[17] = tested on: Candida albicans; assay: Antimicrobial activity against Candida albicans ATCC 44859 after 24 hrs by spectrophotometry; assay type: functional; details: ATCC 44859, 24 h
[18] = tested on: Aspergillus fumigatus; assay: Antimicrobial activity against Aspergillus fumigatus 231 after 24 hrs by spectrophotometry; assay type: functional; details: Aspergillus fumigatus, 231, 24 h
[19] = tested on: Candida albicans; assay: Antimicrobial activity against Candida albicans ATCC 44859 after 48 hrs by spectrophotometry; assay type: functional; details: ATCC 44859, 48 h
[20] = tested on: Candida tropicalis; assay: Antimicrobial activity against Candida tropicalis 156 after 24 hrs by spectrophotometry; assay type: functional; details: Candida tropicalis, 156, 24 h
[21] = tested on: Candida tropicalis; assay: Antimicrobial activity against Candida tropicalis 156 after 48 hrs by spectrophotometry; assay type: functional; details: Candida tropicalis, 156, 48 h
[22] = tested on: Pichia kudriavzevii; assay: Antimicrobial activity against Candida krusei E28 after 24 hrs by spectrophotometry; assay type: functional; details: E28, 24 h
[23] = tested on: Pichia kudriavzevii; assay: Antimicrobial activity against Candida krusei E28 after 48 hrs by spectrophotometry; assay type: functional; details: E28, 48 h
[24] = tested on: Nakaseomyces glabratus; assay: Antimicrobial activity against Candida glabrata 20/I after 24 hrs by spectrophotometry; assay type: functional
[25] = tested on: Nakaseomyces glabratus; assay: Antimicrobial activity against Candida glabrata 20/I after 48 hrs by spectrophotometry; assay type: functional
[26] = tested on: Trichosporon asahii; assay: Antimicrobial activity against Trichosporon asahii 1188 after 24 hrs by spectrophotometry; assay type: functional; details: Trichosporon asahii, 1188, 24 h
[27] = tested on: Trichosporon asahii; assay: Antimicrobial activity against Trichosporon asahii 1188 after 48 hrs by spectrophotometry; assay type: functional; details: Trichosporon asahii, 1188, 48 h
[28] = tested on: Aspergillus fumigatus; assay: Antimicrobial activity against Aspergillus fumigatus 231 after 48 hrs by spectrophotometry; assay type: functional; details: Aspergillus fumigatus, 231, 48 h
[29] = tested on: Lichtheimia corymbifera; assay: Antimicrobial activity against Absidia corymbifera 272 after 24 hrs by spectrophotometry; assay type: functional; details: Lichtheimia corymbifera, 272, 24 h
[30] = tested on: Lichtheimia corymbifera; assay: Antimicrobial activity against Absidia corymbifera 272 after 48 hrs by spectrophotometry; assay type: functional; details: Lichtheimia corymbifera, 272, 48 h
[31] = tested on: Trichophyton mentagrophytes; assay: Antimicrobial activity against Trichophyton mentagrophytes 445 after 72 hrs by spectrophotometry; assay type: functional; details: Trichophyton mentagrophytes, 445, 72 h
[32] = tested on: Trichophyton mentagrophytes; assay: Antimicrobial activity against Trichophyton mentagrophytes 445 after 120 hrs by spectrophotometry; assay type: functional; details: Trichophyton mentagrophytes, 445, 120 h
[33] = Cytotoxicity against CHOK1 cells after 24 hrs by MTT assay; assay type: cell-based; details: Cricetulus griseus, CHO-K1, 24 h

## CCCCCCCCCCCCCC[N+](C)(C)Cc1ccccc1
[1]
  MIC: 1 µM
[2]
  MBC: 3.9 µM
  MIC: 1 µM
[3]
  MIC: 2 µM
[4]
  MBC: 3.9 µM
  MIC: 2 µM
[5]
  MIC: 1 µM
[6]
  MBC: 1 µM
  MIC: 1 µM
[7]
  MIC: 2 µM
[8]
  MBC: 7.8 µM
  MIC: 2 µM
[9]
  MIC: 7.8 µM
[10]
  MBC: 7.8 µM
  MIC: 7.8 µM
[11]
  MIC: 7.8 µM
[12]
  MBC: 7.8 µM
  MIC: 7.8 µM
[13]
  MIC: 7.8 µM
[14]
  MBC: 7.8 µM
  MIC: 7.8 µM
[15]
  MIC: 16 µM
[16]
  MBC: 63 µM
  MIC: 16 µM
[17]
  MIC: 7.8 µM
[18]
  MIC: 7.8 µM
[19]
  MFC: 125 µM
  MIC: 7.8 µM
[20]
  MIC: 3.9 µM
[21]
  MFC: 125 µM
  MIC: 3.9 µM
[22]
  MIC: 3.9 µM
[23]
  MFC: 125 µM
  MIC: 3.9 µM
[24]
  MIC: 7.8 µM
[25]
  MFC: 125 µM
  MIC: 7.8 µM
[26]
  MIC: 31 µM
[27]
  MFC: 125 µM
  MIC: 31 µM
[28]
  MFC: 125 µM
  MIC: 16 µM
[29]
  MIC: 31 µM
[30]
  MFC: 125 µM
  MIC: 31 µM
[31]
  MIC: 16 µM
[32]
  MFC: 16 µM
  MIC: 16 µM
[33]
  IC50: 24 µM

## CCCCCCCCCCCC[N+](C)(C)Cc1ccccc1
[1]
  MIC: 0.5 µM
[2]
  MBC: 2 µM
  MIC: 2 µM
[3]
  MIC: 0.5 µM
[4]
  MBC: 1 µM
  MIC: 0.5 µM
[5]
  MIC: 0.5 µM
[6]
  MBC: 0.5 µM
  MIC: 0.5 µM
[7]
  MIC: 0.5 µM
[8]
  MBC: 1 µM
  MIC: 1 µM
[9]
  MIC: 0.5 µM
[10]
  MBC: 2 µM
  MIC: 2 µM
[11]
  MIC: 0.5 µM
[12]
  MBC: 0.5 µM
  MIC: 0.5 µM
[13]
  MIC: 1 µM
[14]
  MBC: 1 µM
  MIC: 1 µM
[15]
  MIC: 3.9 µM
[16]
  MBC: 7.8 µM
  MIC: 3.9 µM
[17]
  MIC: 0.5 µM
[18]
  MIC: 1 µM
[19]
  MFC: 1 µM
  MIC: 0.5 µM
[20]
  MIC: 0.5 µM
[21]
  MFC: 1 µM
  MIC: 0.5 µM
[22]
  MIC: 0.5 µM
[23]
  MFC: 0.5 µM
  MIC: 0.5 µM
[24]
  MIC: 0.5 µM
[25]
  MFC: 0.5 µM
  MIC: 0.5 µM
[26]
  MIC: 0.5 µM
[27]
  MFC: 2 µM
  MIC: 2 µM
[28]
  MFC: 3.9 µM
  MIC: 3.9 µM
[29]
  MIC: 7.8 µM
[30]
  MFC: 7.8 µM
  MIC: 7.8 µM
[31]
  MIC: 1 µM
[32]
  MFC: 2 µM
  MIC: 1 µM
[33]
  IC50: 29 µM

## CCCCCCCCCCCCCCCC[N+](C)(C)Cc1ccccc1
[1]
  MIC: 1 µM
[2]
  MBC: 3.9 µM
  MIC: 1 µM
[3]
  MIC: 2 µM
[4]
  MBC: 3.9 µM
  MIC: 2 µM
[5]
  MIC: 0.5 µM
[6]
  MBC: 3.9 µM
  MIC: 0.5 µM
[7]
  MIC: 2 µM
[8]
  MBC: 3.9 µM
  MIC: 2 µM
[9]
  MIC: 7.8 µM
[10]
  MBC: 7.8 µM
  MIC: 7.8 µM
[11]
  MIC: 7.8 µM
[12]
  MBC: 7.8 µM
  MIC: 7.8 µM
[13]
  MIC: 7.8 µM
[14]
  MBC: 7.8 µM
  MIC: 7.8 µM
[15]
  MIC: 16 µM
[16]
  MBC: 125 µM
  MIC: 16 µM
[17]
  MIC: 3.9 µM
[18]
  MIC: 7.8 µM
[19]
  MFC: 7.8 µM
  MIC: 7.83 µM
[20]
  MIC: 3.9 µM
[21]
  MFC: 7.8 µM
  MIC: 7.8 µM
[22]
  MIC: 2 µM
[23]
  MFC: 2 µM
  MIC: 2 µM
[24]
  MIC: 2 µM
[25]
  MFC: 63 µM
  MIC: 3.9 µM
[26]
  MIC: 7.8 µM
[27]
  MFC: 63 µM
  MIC: 7.8 µM
[28]
  MFC: 63 µM
  MIC: 7.8 µM
[29]
  MIC: 7.8 µM
[30]
  MFC: 63 µM
  MIC: 7.8 µM
[31]
  MIC: 7.8 µM
[32]
  MFC: 63 µM
  MIC: 7.8 µM
[33]
  IC50: 15 µM

## CCCCCCCCCCCCCCCCCC[n+]1ccc2ccccc2c1
[1]
  MIC: 0.5 µM
[2]
  MBC: 2 µM
  MIC: 0.5 µM
[3]
  MIC: 0.5 µM
[4]
  MBC: 2 µM
  MIC: 0.5 µM
[5]
  MIC: 0.5 µM
[6]
  MBC: 2 µM
  MIC: 0.5 µM
[7]
  MIC: 2 µM
[8]
  MBC: 2 µM
  MIC: 2 µM
[9]
  MIC: 31 µM
[10]
  MBC: 31 µM
  MIC: 31 µM
[11]
  MIC: 63 µM
[12]
  MBC: 63 µM
  MIC: 63 µM
[13]
  MIC: 63 µM
[14]
  MBC: 250 µM
  MIC: 63 µM
[15]
  MIC: 125 µM
[16]
  MBC: 250 µM
  MIC: 125 µM
[17]
  MIC: 2 µM
[18]
  MIC: 63 µM
[19]
  MFC: 2 µM
  MIC: 2 µM
[20]
  MIC: 2 µM
[21]
  MFC: 2 µM
  MIC: 2 µM
[22]
  MIC: 2 µM
[23]
  MFC: 2 µM
  MIC: 2 µM
[24]
  MIC: 1 µM
[25]
  MFC: 2 µM
  MIC: 1 µM
[26]
  MIC: 2 µM
[27]
  MFC: 2 µM
  MIC: 2 µM
[28]
  MFC: 63 µM
  MIC: 63 µM
[29]
  MIC: 7.8 µM
[30]
  MFC: 63 µM
  MIC: 7.8 µM
[31]
  MIC: 2 µM
[32]
  MFC: 31 µM
  MIC: 2 µM
[33]
  IC50: 6 µM

## CCCCCCCCCCCCCCCCCC[n+]1ccc2c(O)cccc2c1
[33]
  IC50: 7 µM
